Experiments:
[1] = Initial and over time miscibility and pH in potassium formate brines; type: physicochemical; details: for After Static Aging: overnight 150° F.; for pH Final: static 16 hrs @ 150° F.
Protocol: Completion breaker solutions were to be tested at 5%, 10%, and 20% by volume concentrations in each of the brines. The initial miscibility and the miscibility after static aging overnight at 150° F. were observed. Also, the pH of the final mixes was measured. The different concentrations of the breaker solutions were prepared with fresh water and filtered through a 1.6 μm glass fiber filter prior to testing.
The tests were run by adding the appropriate volume of the test breaker (5%, 10%, or 20% by volume) to the volume of the test brine needed to total 100 ml in a 4 ounce jar, sealing it, and swirling to mix the components. Observation was noted of the compatibility of the components.

[2] = Active toxicity test of GLDA on Daphnia magna (OECD 202); type: in vivo; details: in vivo, OECD 202, 48-h
Protocol: (§1) GLDA was also tested for its eco-toxicological effect on various environmental subjects. In particular, the active toxicity of GLDA was measured on various organisms following OECD 201, 202 and 203 protocols.

[3] = tested on: Daphnia magna; assay: as above; type: in vivo; details: OECD 202, 48-h
Protocol: as §1

[4] = 5% by volume, potassium formate brine 11.0 lb/gal
[5] = 5% by volume, potassium formate brine 12.0 lb/gal
[6] = 5% by volume, potassium formate brine 13.0 lb/gal
[7] = 10% by volume, potassium formate brine 11.0 lb/gal
[8] = 10% by volume, potassium formate brine 12.0 lb/gal
[9] = 10% by volume, potassium formate brine 13.0 lb/gal
[10] = 20% by volume, potassium formate brine 11.0 lb/gal
[11] = 20% by volume, potassium formate brine 12.0 lb/gal
[12] = 20% by volume, potassium formate brine 13.0 lb/gal

For `O=C(O)CC[C@@H](C(=O)O)N(CC(=O)O)CC(=O)O` [GLDA, L-glutamic acid N,N-diacetic acid], the “Initial Observation” value [1, 4] was “Clear, totally soluble”, the “After Static Aging” value [1, 4] was “Clear, totally soluble” and the “pH Final” value [1, 4] was 12.7. For the same molecule, the “Initial Observation” value [1, 5] was “Clear, totally soluble”, the “After Static Aging” value [1, 5] was “Clear, totally soluble” and the “pH Final” value [1, 5] was 13.3. For the same molecule, the “Initial Observation” value [1, 6] was “Clear, totally soluble”, the “After Static Aging” value [1, 6] was “Clear, totally soluble” and the “pH Final” value [1, 6] was 13.8. For the same molecule, the “Initial Observation” value [1, 7] was “Clear, totally soluble”, the “After Static Aging” value [1, 7] was “Clear, totally soluble” and the “pH Final” value [1, 7] was 13.3. For the same molecule, the “Initial Observation” value [1, 8] was “Clear, totally soluble”, the “After Static Aging” value [1, 8] was “Clear, totally soluble” and the “pH Final” value [1, 8] was 14.4. The “Initial Observation” value [1, 9] was “Clear, totally soluble”, the “After Static Aging” value [1, 9] was “Clear, totally soluble” and the “pH Final” value [1, 9] was 15.0. For the same molecule, the “Initial Observation” value [1, 10] was “Clear, totally soluble”, the “After Static Aging” value [1, 10] was “Clear, totally soluble” and the “pH Final” value [1, 10] was 13.7. The “Initial Observation” value [1, 11] was “Clear, totally soluble”, the “After Static Aging” value [1, 11] was “Clear, totally soluble” and the “pH Final” value [1, 11] was 14.7. For the same molecule, the “Initial Observation” value [1, 12] was “Clear, totally soluble”, the “After Static Aging” value [1, 12] was “Clear, totally soluble” and the “pH Final” value [1, 12] was 15.4. The “solubility / miscibility in the potassium formate brines” value ([1]; tested concentrations, 11.0-13.0 lb/gal brines) was “soluble in the tested concentrations of the potassium formate brine”, the EC50 at 48 h [2] was > 100 µg/mL and the “48-h NOEC” value [3] was “NOEC ≧ 100 mg/l”.

— US8881823B2, “Environmentally friendly low temperature breaker systems and related methods” (Halliburton Energy Services, Inc., priority 2011, dated 2014)
